≈ marks a conversion by molar mass, not a printed value.
What was measured:
Assay type in all cases: functional
Bacillus subtilis = assay: Antibacterial activity against Bacillus subtilis CGMCC 1.88 after 24 hrs by micro-broth dilution method; settings: CGMCC 1.88, 24 h
Staphylococcus aureus [1] = assay: Antibacterial activity against Staphylococcus aureus CGMCC 1.89 after 24 hrs by micro-broth dilution method; settings: CGMCC 1.89, 24 h
Pseudomonas aeruginosa = assay: Antibacterial activity against Pseudomonas aeruginosa CGMCC 1.2031 after 24 hrs by micro-broth dilution method; settings: CGMCC 1.2031, 24 h
Staphylococcus aureus [2] = assay: Antibacterial activity against methicillin-resistant Staphylococcus aureus after 24 hrs by micro-broth dilution method
Bacillus cereus = assay: Antibacterial activity against Bacillus cereus CGMCC 1.1846 after 24 hrs by micro-broth dilution method; settings: CGMCC 1.1846, 24 h
Escherichia coli = assay: Antibacterial activity against Escherichia coli CGMCC 1.1574 after 24 hrs by micro-broth dilution method; settings: CGMCC 1.1574, 24 h

| SMILES | MIC (Bacillus subtilis) [µg/mL] | MIC (Staphylococcus aureus [1]) [µg/mL] | MIC (Pseudomonas aeruginosa) [µg/mL] | MIC (Staphylococcus aureus [2]) [µg/mL] | MIC (Bacillus cereus) [µg/mL] | MIC (Escherichia coli) [µg/mL] |
| --- | --- | --- | --- | --- | --- | --- |
| COC1=CC2C(=O)N(C)[C@@H](C)C(=O)N3NCCC[C@@H]3C(=O)N3[C@@H](C[C@@]4(O)c5ccc(Cl)cc5N[C@@H]34)C(=O)N[C@H](C(C)C)C(=O)N3NCCC[C@@H]3C(=O)N2N=C1 (stereo not given in full) | 3.13 (≈ 4 µM) | 1.56 (≈ 1.99 µM) | > 100 | 1.56 (≈ 1.99 µM) | 3.13 (≈ 4 µM) | > 100 |
| CC(C)[C@@H]1NC(=O)[C@@H]2C[C@@]3(O)c4ccc(Cl)cc4N[C@H]3N2C(=O)[C@H]2CCCNN2C(=O)[C@@H](C)N(C)C(=O)[C@H]2CCCNN2C(=O)[C@@H]2CCCNN2C1=O | 12.5 (≈ 16.5 µM) | 6.25 (≈ 8.25 µM) | > 100 | 6.25 (≈ 8.25 µM) | 12.5 (≈ 16.5 µM) | > 100 |
| CC1(C)S[C@@H]2[C@H](NC(=O)[C@H](N)c3ccccc3)C(=O)N2[C@H]1C(=O)[O-].[Na+] [AMPICILLIN SODIUM] | 1.56 | 6.25 | > 100 | > 100 | 6.25 | 3.13 |
| COC1C=NN2C(=O)[C@H]3CCCNN3C(=O)[C@@H](C(C)C)NC(=O)[C@@H]3C[C@@]4(O)c5ccc(Cl)cc5N[C@H]4N3C(=O)[C@H]3CCCNN3C(=O)[C@H](C)N(C)C(=O)C2C1 (stereo not given in full) | 25 (≈ 31.8 µM) | 25 (≈ 31.8 µM) | > 100 | 25 (≈ 31.8 µM) | 25 (≈ 31.8 µM) | > 100 |
| CC(C)[C@H]1NC(=O)[C@@H]2C[C@@]3(O)c4ccc(Cl)cc4N[C@H]3N2C(=O)[C@H]2CCCNN2C(=O)[C@@H](C)NC(=O)[C@H]2CCCNN2C(=O)[C@@H]2CCCNN2C1=O | > 100 | > 100 | > 100 | > 100 | > 100 | > 100 |

— ChEMBL document CHEMBL1949599, “Three novel cyclic hexapeptides from Streptomyces alboflavus 313 and their antibacterial activity” (2012)
